Test results reported in US20240207427A1, “SELECTIVE DRUG RELEASE FROM INTERNALIZED CONJUGATES OF BIOLOGICALLY ACTIVE COMPOUNDS” (priority 2021, published 2024).
Read-outs that look alike come from different tables or passages of the source.

Experiments:
Type in all cases: cell-based
[1] = tested on: renal carcinoma cells (786-O); test: In vitro potency (CellTiter-Glo, 96 h), 786-O; settings: Homo sapiens, 786-0, 96 h
Method in brief: (§1)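 IC50 (ng/mL or nmol/L) derived from CellTiter-Glo luminescence after 96 h exposure at 37 °C to serial dilutions of ADC or CPT free drug. Log-phase cells had been plated 24 h beforehand in RPMI 1640 containing 20% FBS.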

[2] = tested on: melanoma cells (A2058); test: In vitro potency (CellTiter-Glo, 96 h), A2058; settings: Homo sapiens, A2058, 96 h
Method in brief: (§2)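 IC50 (ng/mL) was derived from growth inhibition of STR-authenticated lines held in culture under 2 months after thawing. Cells were grown in RPMI 1640 plus 20% FBS and treated with ADC dilution series for 96 h at 37 °C.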

[3] = tested on: pancreatic cancer cells (BxPC3); test: In vitro potency (CellTiter-Glo, 96 h), BxPC3; settings: Homo sapiens, BXPC-3, 96 h
Method in brief: (§3)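 Four-day continuous exposure at 37 °C to serially diluted ADC or free camptothecin payload, in RPMI 1640 with 20% FBS after 24 h pre-plating. Luminescent signal gave IC50 (ng/mL; nmol/L).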

[4] = tested on: non-small-cell lung cancer cells (Calu1); test: In vitro potency (CellTiter-Glo, 96 h), Calu1; settings: Homo sapiens, Calu-1, 96 h
Method in brief: as §2

[5] = tested on: anaplastic large cell lymphoma cells (DEL); test: In vitro potency (CellTiter-Glo, 96 h), DEL
Method in brief: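 Medium: RPMI 1640 + 20% FBS. Pre-seeding: 24 h. Treatment: ADC or CPT free drug serial dilutions, 96 h, 37 °C. Read-out: luminescence; IC50 in ng/mL and nmol/L.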

[6] = tested on: anaplastic large cell lymphoma cells (DELBVR); test: In vitro potency (CellTiter-Glo, 96 h), DELBVR
Method in brief: as §1

[7] = tested on: anaplastic large cell lymphoma cells (Karpas299); test: In vitro potency (CellTiter-Glo, 96 h), Karpas299; settings: Homo sapiens, KARPAS-299, 96 h
Method in brief: as §1

[8] = tested on: Hodgkin's lymphoma cells (L540cy); test: In vitro potency (CellTiter-Glo, 96 h), L540cy
Method in brief: as §1

[9] = tested on: Ls174T cells; test: In vitro potency (CellTiter-Glo, 96 h), Ls174T; settings: Homo sapiens, LS174T
Method in brief: as §3

[10] = tested on: breast cancer cells (MDA-MB-231); test: In vitro potency (CellTiter-Glo, 96 h), MDA-MB-231; settings: Homo sapiens, MDA-MB-231, 96 h
Method in brief: as §1

[11] = tested on: acute myeloid leukemia cells (MOLM-13); test: In vitro potency (CellTiter-Glo, 96 h), MOLM-13; settings: Homo sapiens, MOLM-13, 96 h
Method in brief: as §3

[12] = tested on: B-lymphocyte cancer cells (SU-DHL4); test: In vitro potency (CellTiter-Glo, 96 h), SU-DHL-4; settings: Homo sapiens, SU-DHL-4, 96 h
Method in brief: as §1

[13] = CPT free drugs, Table 24, CellTiter-Glo after 96 h exposure, read-out: IC50 (nmol/L) 786-O
[14] = CPT free drugs, Table 24, CellTiter-Glo after 96 h exposure, read-out: IC50 (nmol/L) A2058
[15] = CPT free drugs, Table 24, CellTiter-Glo after 96 h exposure, read-out: IC50 (nmol/L) BxPC3
[16] = CPT free drugs, Table 24, CellTiter-Glo after 96 h exposure, read-out: IC50 (nmol/L) Calu1
[17] = CPT free drugs, Table 24, CellTiter-Glo after 96 h exposure, read-out: IC50 (nmol/L) DEL
[18] = CPT free drugs, Table 24, CellTiter-Glo after 96 h exposure, read-out: IC50 (nmol/L) DELBVR
[19] = CPT free drugs, Table 24, CellTiter-Glo after 96 h exposure, read-out: IC50 (nmol/L) Karpas299
[20] = CPT free drugs, Table 24, CellTiter-Glo after 96 h exposure, read-out: IC50 (nmol/L) L540cy
[21] = CPT free drugs, Table 24, CellTiter-Glo after 96 h exposure, read-out: IC50 (nmol/L) Ls174T
[22] = CPT free drugs, Table 24, CellTiter-Glo after 96 h exposure, read-out: IC50 (nmol/L) MDAMB231
[23] = CPT free drugs, Table 24, CellTiter-Glo after 96 h exposure, read-out: IC50 (nmol/L) MOLM-13
[24] = CPT free drugs, Table 24, CellTiter-Glo after 96 h exposure, read-out: IC50 (nmol/L) SU-DHL-4
[25] = read-out: IC50 (nmol/L) 786-O, CPT free drugs, Table 24, CellTiter-Glo after 96 h exposure
[26] = read-out: IC50 (nmol/L) BxPC3, CPT free drugs, Table 24, CellTiter-Glo after 96 h exposure
[27] = read-out: IC50 (nmol/L) DEL, CPT free drugs, Table 24, CellTiter-Glo after 96 h exposure
[28] = read-out: IC50 (nmol/L) DELBVR, CPT free drugs, Table 24, CellTiter-Glo after 96 h exposure
[29] = read-out: IC50 (nmol/L) Karpas299, CPT free drugs, Table 24, CellTiter-Glo after 96 h exposure
[30] = read-out: IC50 (nmol/L) L540cy, CPT free drugs, Table 24, CellTiter-Glo after 96 h exposure
[31] = 96 h, read-out: IC50 (nmol/L) Ls174T, CPT free drugs, Table 24, CellTiter-Glo after 96 h exposure
[32] = read-out: IC50 (nmol/L) MDAMB231, CPT free drugs, Table 24, CellTiter-Glo after 96 h exposure
[33] = read-out: IC50 (nmol/L) MOLM-13, CPT free drugs, Table 24, CellTiter-Glo after 96 h exposure
[34] = read-out: IC50 (nmol/L) SU-DHL-4, CPT free drugs, Table 24, CellTiter-Glo after 96 h exposure

| Compound | IC50 [1, 13] | IC50 [2, 14] | IC50 [3, 15] | IC50 [4, 16] | IC50 [5, 17] | IC50 [6, 18] | IC50 [7, 19] | IC50 [8, 20] | IC50 [9, 21] | IC50 [10, 22] | IC50 [11, 23] | IC50 [12, 24] | IC50 [1, 25] | IC50 [3, 26] | IC50 ([4]; read-out: IC50 (nmol/L) Calu1) | IC50 [7, 29] | IC50 [8, 30] | IC50 [9, 31] | IC50 [10, 32] | IC50 [11, 33] | also measured |
| --- | --- | --- | --- | --- | --- | --- | --- | --- | --- | --- | --- | --- | --- | --- | --- | --- | --- | --- | --- | --- | --- |
| CC[C@@]1(O)C(=O)OCc2c1cc1n(c2=O)Cc2c-1nc1cc(F)ccc1c2CN [Compound 2f] | 6 nmol/L | 2 nmol/L | 9 nmol/L | 40 nmol/L | 1 nmol/L | 1.2 nmol/L | 6 nmol/L | 3 nmol/L | 3.9 nmol/L | 4 nmol/L | 11 nmol/L | 4 nmol/L |  |  |  |  |  |  |  |  |  |
| CC[C@@]1(O)C(=O)OCc2c1cc1n(c2=O)Cc2c-1nc1ccc(C(F)(F)F)cc1c2CN [Compound 2g] | 102 nmol/L | 37 nmol/L | 258 nmol/L | 755 nmol/L | 17.6 nmol/L | 33.5 nmol/L | 221 nmol/L | 62 nmol/L | 65.3 nmol/L | 79 nmol/L | 598 nmol/L | 60 nmol/L |  |  |  |  |  |  |  |  |  |
| CC[C@@]1(O)C(=O)OCc2c1cc1n(c2=O)Cc2c-1nc1cc(F)c(C)cc1c2CN [Compound 2h] | 3 nmol/L | 1 nmol/L | 8 nmol/L | 16 nmol/L | 0.5 nmol/L | 0.8 nmol/L | 3 nmol/L | 3 nmol/L | 1.7 nmol/L | 2 nmol/L | 14 nmol/L | 2 nmol/L |  |  |  |  |  |  |  |  |  |
| CC[C@@]1(O)C(=O)OCc2c1cc1n(c2=O)Cc2c-1nc1cc(F)c(OC)cc1c2CN [Compound 2i] | 5 nmol/L | 2 nmol/L | 10 nmol/L | 31 nmol/L | 1 nmol/L | 1 nmol/L | 5 nmol/L | 2 nmol/L | 3.4 nmol/L | 4 nmol/L | 13 nmol/L | 4 nmol/L |  |  |  |  |  |  |  |  |  |
| CC[C@@]1(O)C(=O)OCc2c1cc1n(c2=O)Cc2c-1nc1cc(F)c(C)c(F)c1c2CN [Compound 2j] |  |  |  |  |  |  |  |  |  |  |  |  | 3 nmol/L | 9 nmol/L | 23 nmol/L | 2 nmol/L | 1 nmol/L | 3 nmol/L | 2 nmol/L | 9 nmol/L | IC50 ([2]; read-out: IC50 (nmol/L) A2058): 2 nmol/L; IC50 [5, 27]: 1 nmol/L; IC50 [6, 28]: 1 nmol/L; IC50 [12, 34]: 2 nmol/L |
| CC[C@@]1(O)C(=O)OCc2c1cc1n(c2=O)Cc2c-1nc1cc(Br)c(C)c(F)c1c2CN [Compound 2k] | 5 nmol/L | 4 nmol/L | 42 nmol/L | 81 nmol/L | 3.5 nmol/L | 3.3 nmol/L | 14 nmol/L | 4 nmol/L | 11.9 nmol/L | 8 nmol/L | 58 nmol/L | 4 nmol/L |  |  |  |  |  |  |  |  |  |
| CC[C@@]1(O)C(=O)OCc2c1cc1n(c2=O)Cc2c-1nc1cc(F)c(F)cc1c2CN [Compound 2l] | 15 nmol/L | 4 nmol/L | 35 nmol/L | 42 nmol/L | 3.3 nmol/L | 2.1 nmol/L | 8 nmol/L | 4 nmol/L | 8.1 nmol/L | 8 nmol/L | 16 nmol/L | 4 nmol/L |  |  |  |  |  |  |  |  |  |
| CC[C@@]1(O)C(=O)OCc2c1cc1n(c2=O)Cc2c-1nc1cc3c(cc1c2CN)OCC3 [Compound 2m] |  |  |  |  |  |  |  |  |  |  |  |  | 55 nmol/L | 128 nmol/L | 249 nmol/L | 57.2 nmol/L | 17.8 nmol/L | 17 nmol/L | 35 nmol/L | 60.7 nmol/L | IC50 ([2]; read-out: IC50 (nmol/L) A2058): 16.2 nmol/L; IC50 [5, 27]: 11 nmol/L; IC50 [6, 28]: 14 nmol/L; IC50 [12, 34]: 22.4 nmol/L |
| CC[C@@]1(O)C(=O)OCc2c1cc1n(c2=O)Cc2c-1nc1cc3c(cc1c2CN)CCO3 [Compound 2n] |  |  |  |  |  |  |  |  |  |  |  |  | 1 nmol/L | 3 nmol/L | 21 nmol/L | 1 nmol/L | 1 nmol/L | 0.8 nmol/L | 1 nmol/L | 6 nmol/L | IC50 ([1]; read-out: 786-O IC50, Table 28, CPT free drugs, renal carcinoma cells 786-O, 96 h, CellTiter-Glo): 5 nmol/L; IC50 ([2]; read-out: A2058 IC50): 3 nmol/L; IC50 ([3]; read-out: BxPC3 IC50, Table 28, CPT free drugs, pancreatic cancer cells BxPC3, 96 h, CellTiter-Glo): 3 nmol/L; IC50 ([4]; read-out: Calu1 IC50): 18 nmol/L; IC50 ([5]; read-out: DEL IC50, Table 28, CPT free drugs, anaplastic large cell lymphoma cells DEL, CellTiter-Glo): 1 nmol/L; IC50 ([6]; read-out: DELBVR IC50, Table 28, CPT free drugs, anaplastic large cell lymphoma cells DELBVR, CellTiter-Glo): 1 nmol/L; IC50 ([7]; read-out: Karpas299 IC50, Table 28, CPT free drugs, anaplastic large cell lymphoma cells Karpas299, 96 h, CellTiter-Glo): 5 nmol/L; IC50 ([8]; read-out: L540cy IC50, Table 28, CPT free drugs, Hodgkin's lymphoma cells L540cy, CellTiter-Glo): 2 nmol/L; IC50 ([9]; 96 h, read-out: Ls174T IC50, Table 28, CPT free drugs, Ls174T cells, 96 h, CellTiter-Glo): 4 nmol/L; IC50 ([10]; read-out: MDAMB231 IC50, Table 28, CPT free drugs, breast cancer cells MDA-MB-231, 96 h, CellTiter-Glo): 8 nmol/L; IC50 ([11]; read-out: MOLM-13 IC50, Table 28, CPT free drugs, acute myeloid leukemia cells MOLM-13, 96 h, CellTiter-Glo): 29 nmol/L; IC50 [12, 34]: 1 nmol/L; IC50 ([12]; read-out: SU-DHL-4 IC50, Table 28, CPT free drugs, B-lymphocyte cancer cells SU-DHL4, 96 h, CellTiter-Glo): 1 nmol/L |
| CC[C@@]1(O)C(=O)OCc2c1cc1n(c2=O)Cc2c-1nc1cc(C)c(C)c(F)c1c2CN [Compound 2o] | 66 nmol/L | 18 nmol/L | > 1000 nmol/L | 409 nmol/L | 10 nmol/L | 16 nmol/L | 37 nmol/L | 20 nmol/L | 19.3 nmol/L | 37 nmol/L | 349 nmol/L | 18 nmol/L |  |  |  |  |  |  |  |  |  |
| CC[C@@]1(O)C(=O)OCc2c1cc1n(c2=O)Cc2c-1nc1cccc(F)c1c2CN [Compound 2p] | 14 nmol/L | 11 nmol/L | 62 nmol/L | 160 nmol/L | 4 nmol/L | 8 nmol/L | 27 nmol/L | 7 nmol/L | 15.1 nmol/L | 19 nmol/L | 24 nmol/L | 14 nmol/L |  |  |  |  |  |  |  |  |  |
| CC[C@@]1(O)C(=O)OCc2c1cc1n(c2=O)Cc2c-1nc1cc(F)c(C)c(Br)c1c2CN [Compound 2q, (S)-11-(aminomethyl)-10-bromo-4-ethyl-8-fluoro-4-hydroxy-9-methyl-1,12-dihydro-14H-pyrano[3′,4′:6,7]indolizino[1,2-b]quinoline-3,14(4H)-dione] |  |  |  |  |  |  |  |  |  |  |  |  | 4 nmol/L | 50.8 nmol/L | 78 nmol/L | 2.6 nmol/L | 4 nmol/L | 5 nmol/L | 5.4 nmol/L | 17.3 nmol/L | IC50 ([2]; read-out: IC50 (nmol/L) A2058): 4.8 nmol/L; IC50 [5, 27]: 1 nmol/L; IC50 [6, 28]: 1 nmol/L; IC50 [12, 34]: 1.5 nmol/L |
